Measurements as given in article PMC7746742, “The novel rexinoid MSU-42011 is effective for the treatment of preclinical Kras-driven lung cancer” (Scientific Reports, 2020).

What was measured:
[1] = Steady state drug levels in plasma after 12 weeks on diet (HPLC-MS); format: in vivo, A/J mice; conditions: A/J, mouse, oral, 100 mg/kg diet for 12 weeks, LC-MS, n = 8, mean ± SE
Method: Blood was collected via cardiac puncture into 1 ml lithium heparin tubes (Greiner Bio-one). Blood was centrifuged at 5000 g for 5 min at 4 °C. Plasma was separated and frozen at − 80 °C until processed as described. Acetonitrile was added to precipitate plasma proteins. Samples were centrifuged at 14,000 g for 5 min, and the supernatant was filtered with a 0.2 µm syringe filter. Each sample was dried overnight and reconstituted in 200 µl of 50:50 methanol:water solution for analysis via HPLC. HPLC was performed on a Quatro Premier instrument with an Ascentis Express C18 column and an Acquity UPLC system. The mobile phase A consisted of 10 mM aq. ammonium acetate and the mobile phase B consisted of methanol. The following gradient was applied 99–5% A (0–4 min), 5% A (4–5.1 min), 5–99% A (5.1–6 min). The flow rate was 0.3 ml/minute, and bexarotene and MSU-42011 were detected at ~ 4.5 min. A standard curve was prepared by processing plasma from untreated animals and spiking the samples with 0.1–3 μM of the appropriate rexinoid then reconstituting the samples.

Kras-driven lung tumors = experiment: Treatment of established vinyl carbamate-induced lung adenocarcinomas in A/J mice; format: in vivo
Method: All experiments were performed ethically in accordance with the best practices and AAALAC-accredited Standards for the Management of Laboratory Animals at Michigan State University (MSU). These standards include making every effort to minimize suffering. Mice were euthanized by inhalation of carbon dioxide followed by removal of the lungs. All animal protocols were approved by the Institutional Animal Care and Use Committee (IACUC, protocol 201,800,050)) at MSU. At 7 and 8 weeks of age, A/J female mice (Jackson Laboratories) were injected i.p. with vinyl carbamate (Toronto Research Chemicals, 0.32 mg/mouse). Mice were fed a semi-synthetic diet (AIN-93G BioServ, Flemington NJ), beginning one week before initiation with vinyl carbamate and then for 8 weeks after the first injection. The mice were then randomized into groups (n = 15 mice/group) and fed treatment diets (100 mg rexinoid/kg AIN-93G diet or ~ 25 mg/kg body weight) for 12 weeks. Rexinoids were dissolved in a vehicle of 12.5 ml ethanol and 37.5 ml Neobee oil (Spectrum Chemical, Gardena CA) per kg AIN-93G diet. Six total doses of paclitaxel (Fisher; 15 mg/kg i.p.) and then carboplatin (Fisher; 50 mg/kg i.p.) were given every other week, beginning 9 weeks after injection with vinyl carbamate. After 12 weeks on the treatment diets, blood and lungs were harvested. Lungs were inflated with PBS and surface lesions counted. The left lung was fixed in neutral-buffered formalin (NBF), then sample numbers blinded and randomized. Grossly visible lung tumors on the surface of the left lung were counted. The left lung was embedded in paraffin, step-sectioned (6 sections/lung, 200 microns apart) and then stained with Haemotoxylin and Eosin (H&E). The number, size, and histopathology of tumors on the slides were then evaluated as described. The right lobes of the lung were divided into halves. One half was analyzed by flow cytometry and the other half flash frozen (CO2 and ethanol bath) and stored at − 80 °C.
At 11, 15, and 20 weeks after initiation, anesthesia was induced using 2–4% isofluorane in oxygen at 0.8–2 L/min in a chamber and then maintained using 1.5–2% isofluorane in oxygen at 0.8 L/min using a nosecone. Animals were kept on a heating pad or a heated platform while under anesthesia. Fur was removed from the thoracic area using a chemical depilitory (Nair) immediately prior to imaging. A Vevo 2100 (Fujifilm VisualSonics) high-frequency ultrasound with a MS550D 40 MHz transducer was used to image lung tumors.

iNOS = iNOS inhibition assay (LPS-induced NO production, Griess reaction); format: cell-based, murine; conditions: Mus musculus; RAW264.7 cells, 0–1000 nM rexinoids, LPS 1 ng/ml 24 h, NO by Griess assay; mean ± SE of 3 experiments; read-out: iNOS suppression IC50
Method: To evaluate the anti-inflammatory effects of the novel rexinoids, we utilized the iNOS suppression assay. Inhibition of iNOS in vitro directly correlates with efficacy in our preclinical model of Kras-driven lung cancer. RAW264.7 macrophage-like cells were treated with 0–1 μM rexinoids and stimulated with 1 ng/mL lipopolysaccharide for 24 h, and then NO was measured in the media.
RAW264.7 cells were plated in 96-well plates (20,000 cells/well). After overnight attachment, cells were treated with twofold serial dilutions (0–1000 nM) of rexinoids. After a 20 min incubation at 37 °C, cells were stimulated with 1 ng/mL LPS for 24 h. NO production was measured in culture medium using the Griess reaction. IC50 values were calculated using GraphPad Prism 8.1.2 software for Windows using a log([nM drug concentration]) vs. response curve fit.

[2] = rexinoids 100 mg/kg diet 12 weeks, C/P i.p. x6
[3] = rexinoids 100 mg/kg diet 12 weeks, C/P i.p. x6, mean ± SE
[4] = tumor histopathology, 12 weeks of treatment

For `C=C(c1ccc(C(=O)O)cc1)c1cc2c(cc1C)C(C)(C)CCC2(C)C` [Bexarotene], the concentration at 12 weeks [1] was 81.2 ± 14.9 nM, the “Single agent activity in this model” value (Kras-driven lung tumors; 100 mg/kg diet, 12 weeks) was “inactive” and the “Tumor grades compared to the controls” value (Kras-driven lung tumors; 12 weeks of treatment) was “no differences”. For the same compound, the “Average # tumors/slide” value (Kras-driven lung tumors; rexinoids 100 mg/kg diet 12 weeks, C 50 mg/kg and P 15 mg/kg i.p. x6, mean ± SE) was 3.37 ± 0.3, the “Average # tumors/slide (% control)” value (Kras-driven lung tumors; [2]) was 79% and the “Average tumor burden (% control)” value (Kras-driven lung tumors; [2]) was 78%. For the same compound, the “Average tumor size (% control)” value (Kras-driven lung tumors; [2]) was 100%, the Average tumor burden (Kras-driven lung tumors; [3]) was 0.72 ± 0.2 mm^3 and the Average tumor size (Kras-driven lung tumors; [3]) was 0.22 ± 0.04 mm^3. The “# High grade tumors” value (Kras-driven lung tumors; [4]) was 71, the “# Low grade tumors” value (Kras-driven lung tumors; [4]) was 1 (1%) and the “# Medium grade” value (Kras-driven lung tumors; [4]) was 29 (29%). The “High grade tumors (% total)” value (Kras-driven lung tumors; [4]) was 70%, the “Low grade tumors (% total)” value (Kras-driven lung tumors; [4]) was 1 (1%) and the “Medium grade (% total)” value (Kras-driven lung tumors; [4]) was 29 (29%). The IC50 (iNOS) was 143 ± 19 nM.
